{"source": "PubChem BioAssay (NCI)", "experiment_in_all_cases": "DTP human tumour cell line panel, 48 h", "key": {"[1]": {"tested_on": "786-0 renal"}, "[2]": {"tested_on": "A498 renal"}, "[3]": {"tested_on": "A549 NSCLC"}, "[4]": {"tested_on": "ACHN renal"}, "[5]": {"tested_on": "BT-549 breast"}, "[6]": {"tested_on": "CAKI-1 renal"}, "[7]": {"tested_on": "CCRF-CEM leukemia"}, "[8]": {"tested_on": "COLO 205 colon"}, "[9]": {"tested_on": "DU-145 prostate"}, "[10]": {"tested_on": "EKVX NSCLC"}, "[11]": {"tested_on": "HCC-2998 colon"}, "[12]": {"tested_on": "HCT-116 colon"}, "[13]": {"tested_on": "HCT-15 colon"}, "[14]": {"tested_on": "HOP-62 NSCLC"}, "[15]": {"tested_on": "HOP-92 NSCLC"}, "[16]": {"tested_on": "HS 578T breast"}, "[17]": {"tested_on": "IGROV1 ovarian"}, "[18]": {"tested_on": "K-562 leukemia"}, "[19]": {"tested_on": "KM12 colon"}, "[20]": {"tested_on": "LOX IMVI melanoma"}, "[21]": {"tested_on": "M14 melanoma"}, "[22]": {"tested_on": "MALME-3M melanoma"}, "[23]": {"tested_on": "MCF7 breast"}, "[24]": {"tested_on": "MDA-MB-231 breast"}, "[25]": {"tested_on": "MOLT-4 leukemia"}, "[26]": {"tested_on": "NCI-H226 lung"}, "[27]": {"tested_on": "NCI-H23 lung"}, "[28]": {"tested_on": "NCI-H460 lung"}, "[29]": {"tested_on": "NCI/ADR-RES ovarian"}, "[30]": {"tested_on": "OVCAR-3 ovarian"}, "[31]": {"tested_on": "OVCAR-4 ovarian"}, "[32]": {"tested_on": "OVCAR-5 ovarian"}, "[33]": {"tested_on": "OVCAR-8 ovarian"}, "[34]": {"tested_on": "PC-3 prostate"}, "[35]": {"tested_on": "RPMI-8226 leukemia"}, "[36]": {"tested_on": "RXF 393 renal"}, "[37]": {"tested_on": "SF-268 CNS"}, "[38]": {"tested_on": "SF-295 CNS"}, "[39]": {"tested_on": "SK-MEL-2 melanoma"}, "[40]": {"tested_on": "SK-MEL-28 melanoma"}, "[41]": {"tested_on": "SK-MEL-5 melanoma"}, "[42]": {"tested_on": "SK-OV-3 ovarian"}, "[43]": {"tested_on": "SN12C renal"}, "[44]": {"tested_on": "SNB-19 CNS"}, "[45]": {"tested_on": "SNB-75 CNS"}, "[46]": {"tested_on": "SR leukemia"}, "[47]": {"tested_on": "SW-620 colon"}, "[48]": {"tested_on": "T-47D breast"}, "[49]": {"tested_on": "TK-10 renal"}, "[50]": {"tested_on": "U251 CNS"}, "[51]": {"tested_on": "UACC-257 melanoma"}, "[52]": {"tested_on": "UACC-62 melanoma"}, "[53]": {"tested_on": "UO-31 renal"}}, "note": "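These data come from cells grown in 96-well plates and exposed to compound for 48 hours at five concentrations. TGI denotes the concentration required for complete inhibition of growth.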", "data": [{"compound": "Cc1c(C#N)c2nnn(-c3ccccc3)c(=O)n2c1-c1ccccc1", "values": [{"measurement": "TGI", "setting": "[1]", "result": 30.1, "unit": "µM"}, {"measurement": "TGI", "setting": "[2]", "result": "> 25.1", "unit": "µM"}, {"measurement": "TGI", "setting": "[3]", "result": "> 45.8", "unit": "µM"}, {"measurement": "TGI", "setting": "[4]", "result": "> 100", "unit": "µM"}, {"measurement": "TGI", "setting": "[5]", "result": "> 100", "unit": "µM"}, {"measurement": "TGI", "setting": "[6]", "result": "> 100", "unit": "µM"}, {"measurement": "TGI", "setting": "[7]", "result": "> 20.7", "unit": "µM"}, {"measurement": "TGI", "setting": "[8]", "result": 3.41, "unit": "µM"}, {"measurement": "TGI", "setting": "[9]", "result": 8.45, "unit": "µM"}, {"measurement": "TGI", "setting": "[10]", "result": "> 34.5", "unit": "µM"}, {"measurement": "TGI", "setting": "[11]", "result": "> 39.4", "unit": "µM"}, {"measurement": "TGI", "setting": "[12]", "result": 13.2, "unit": "µM"}, {"measurement": "TGI", "setting": "[13]", "result": "> 100", "unit": "µM"}, {"measurement": "TGI", "setting": "[14]", "result": "> 100", "unit": "µM"}, {"measurement": "TGI", "setting": "[15]", "result": "> 100", "unit": "µM"}, {"measurement": "TGI", "setting": "[16]", "result": "> 100", "unit": "µM"}, {"measurement": "TGI", "setting": "[17]", "result": "> 100", "unit": "µM"}, {"measurement": "TGI", "setting": "[18]", "result": 0.801, "unit": "µM"}, {"measurement": "TGI", "setting": "[19]", "result": 29.1, "unit": "µM"}, {"measurement": "TGI", "setting": "[20]", "result": "> 100", "unit": "µM"}, {"measurement": "TGI", "setting": "[21]", "result": "> 35.6", "unit": "µM"}, {"measurement": "TGI", "setting": "[22]", "result": "> 100", "unit": "µM"}, {"measurement": "TGI", "setting": "[23]", "result": "> 66.6", "unit": "µM"}, {"measurement": "TGI", "setting": "[24]", "result": "> 100", "unit": "µM"}, {"measurement": "TGI", "setting": "[25]", "result": 30.5, "unit": "µM"}, {"measurement": "TGI", "setting": "[26]", "result": "> 100", "unit": "µM"}, {"measurement": "TGI", "setting": "[27]", "result": "> 77.6", "unit": "µM"}, {"measurement": "TGI", "setting": "[28]", "result": "> 76.6", "unit": "µM"}, {"measurement": "TGI", "setting": "[29]", "result": 14.6, "unit": "µM"}, {"measurement": "TGI", "setting": "[30]", "result": 16.2, "unit": "µM"}, {"measurement": "TGI", "setting": "[31]", "result": "> 100", "unit": "µM"}, {"measurement": "TGI", "setting": "[32]", "result": "> 100", "unit": "µM"}, {"measurement": "TGI", "setting": "[33]", "result": "> 100", "unit": "µM"}, {"measurement": "TGI", "setting": "[34]", "result": "> 100", "unit": "µM"}, {"measurement": "TGI", "setting": "[35]", "result": 14.8, "unit": "µM"}, {"measurement": "TGI", "setting": "[36]", "result": "> 24.2", "unit": "µM"}, {"measurement": "TGI", "setting": "[37]", "result": "> 100", "unit": "µM"}, {"measurement": "TGI", "setting": "[38]", "result": 8.53, "unit": "µM"}, {"measurement": "TGI", "setting": "[39]", "result": "> 72.9", "unit": "µM"}, {"measurement": "TGI", "setting": "[40]", "result": "> 100", "unit": "µM"}, {"measurement": "TGI", "setting": "[41]", "result": 16.5, "unit": "µM"}, {"measurement": "TGI", "setting": "[42]", "result": "> 29.5", "unit": "µM"}, {"measurement": "TGI", "setting": "[43]", "result": "> 56.8", "unit": "µM"}, {"measurement": "TGI", "setting": "[44]", "result": "> 100", "unit": "µM"}, {"measurement": "TGI", "setting": "[45]", "result": 18.2, "unit": "µM"}, {"measurement": "TGI", "setting": "[46]", "result": 19.3, "unit": "µM"}, {"measurement": "TGI", "setting": "[47]", "result": "> 100", "unit": "µM"}, {"measurement": "TGI", "setting": "[48]", "result": 87.4, "unit": "µM"}, {"measurement": "TGI", "setting": "[49]", "result": "> 100", "unit": "µM"}, {"measurement": "TGI", "setting": "[50]", "result": "> 100", "unit": "µM"}, {"measurement": "TGI", "setting": "[51]", "result": "> 100", "unit": "µM"}, {"measurement": "TGI", "setting": "[52]", "result": "> 100", "unit": "µM"}, {"measurement": "TGI", "setting": "[53]", "result": "> 100", "unit": "µM"}]}]}
